Test results published in patent US6670363B1, “Azole compounds as therapeutic agents for fungal infections” (Ranbaxy Laboratories Limited, priority 2000, dated 2003).
Converted amounts (≈) assume the structure as drawn.

Legend:
Cryptococcus neoformans = experiment: In vitro MIC, NCCLS M27A, Cryptococcus neoformans; assay type: cell-based; set-up: MIC, C. neoformans I: unit not given beside the values; MIC, C. neoformans M 106: unit not given here; details: for MIC, C. neoformans I: C. neoformans strain I; for MIC, C. neoformans M 106: C. neoformans strain M 106
Histoplasma capsulatum = assay type: cell-based
A. fumigatus s 1008 = experiment: In vitro MIC, NCCLS M38P broth method (RPMI 1640/MOPS pH7), Aspergillus fumigatus; assay type: cell-based; details: for MIC, A. fumigatus 1008: A. fumigatus strain 1008
Candida = experiment: In vitro MIC, NCCLS M27A, Candida species; assay type: cell-based; set-up: MIC, Candida albicans 1.549 / MIC, Candida albicans Y-01-19 / MIC, C. krusei 766-1 / MIC, C. krusei Q. C / MIC, Candida tropicalis ATCC / MIC, C. glabrata 90030: unit not given beside the values; MIC, Candida albicans A 26 / MIC, C. parapsilosis Q. C.: unit not given here; details: for MIC, C. glabrata 90030: C. glabrata strain 90030; for MIC, C. krusei 766-1: C. krusei strain 766-1; for MIC, C. krusei Q. C: C. krusei strain Q. C; for MIC, C. parapsilosis Q. C.: C. parapsilosis strain Q. C.; for MIC, Candida albicans 1.549: Candida albicans strain 1.549; for MIC, Candida albicans A 26: Candida albicans strain A 26; for MIC, Candida albicans Y-01-19: Candida albicans strain Y-01-19

With `Cc1ccc(Cl)cc1N1CCN(c2ccc(-n3cnn(CC(O)(Cn4cncn4)c4ccc(F)cc4F)c3=O)cc2)CC1` (stereo not drawn) [Compound 48, 2-[2-(2,4-Difluorophenyl)-2-hydroxy-3-(1H-1,2,4-triazol-1-yl)propyl]-4-{4-[4-(5-chloro-2-methylphenyl)-1-piperazinyl]phenyl}-3-(2H,4H)-1,2,4-triazolone] the “MIC, C. neoformans I” value (Cryptococcus neoformans) was less than 0.03, the “MIC, C. neoformans M 106” value (Cryptococcus neoformans) was 0.06 and the MIC, H. capsulatum (Histoplasma capsulatum) was 0.25 µg/mL (≈ 0.412 µM). The “MIC, A. fumigatus 1008” value (A. fumigatus s 1008) was greater than 16, the melting point was 82 to 87 °C and the “MIC, C. glabrata 90030” value (Candida) was 1.00. The “MIC, C. krusei 766-1” value (Candida) was 1.00, the “MIC, C. krusei Q. C” value (Candida) was 0.50 and the “MIC, C. parapsilosis Q. C.” value (Candida) was 0.12. The “MIC, Candida albicans 1.549” value (Candida) was 0.50, the “MIC, Candida albicans A 26” value (Candida) was less than 0.03 and the “MIC, Candida albicans Y-01-19” value (Candida) was 0.50. The “MIC, Candida tropicalis ATCC” value (Candida) was less than 0.03.

In the case of `O=c1n(-c2ccc(N3CCN(c4ccc(Cl)c(Cl)c4)CC3)cc2)cnn1CC(O)(Cn1cncn1)c1ccc(F)cc1F` (stereo not drawn) [Compound 37, 2-[2-(2,4-Difluorophenyl)-2-hydroxy-3-(1H-1,2,4-triazol-1-yl)propyl]-4-{4-[4-(3,4-dichlorophenyl)-1-piperazinyl]phenyl}-3-(2H,4H)-1,2,4-triazolone], the “MIC, C. neoformans I” value (Cryptococcus neoformans) is reported as less than 0.03, the “MIC, C. neoformans M 106” value (Cryptococcus neoformans) is reported as less than 0.03 and the MIC, H. capsulatum (Histoplasma capsulatum) is reported as less than 0.03 µg/mL. The “MIC, A. fumigatus 1008” value (A. fumigatus s 1008) was greater than 16, the melting point was 194 to 196 °C and the “MIC, C. glabrata 90030” value (Candida) was 0.12. The “MIC, C. krusei 766-1” value (Candida) was 0.25, the “MIC, C. krusei Q. C” value (Candida) was 0.06 and the “MIC, C. parapsilosis Q. C.” value (Candida) was less than 0.03. The “MIC, Candida albicans 1.549” value (Candida) was 0.06, the “MIC, Candida albicans A 26” value (Candida) was less than 0.03 and the “MIC, Candida albicans Y-01-19” value (Candida) was 0.06. The “MIC, Candida tropicalis ATCC” value (Candida) was less than 0.03.

With `O=c1n(-c2ccc(N3CCN(c4ccc(CCO)cc4)CC3)cc2)cnn1CC(O)(Cn1cncn1)c1ccc(F)cc1F` (stereo not drawn) [Compound 95, 2-[2-(2,4-Difluorophenyl)-2-hydroxy-3-(1H-1,2,4-triazol-1-yl)propyl]-4-{4-[4-(4-(2-hydroxyethyl)phenyl)-1-piperazinyl]phenyl}-3-(2H,4H)-1,2,4-triazolone] the “MIC (υg/ml) (A. fumigatus s 1008)” value (A. fumigatus s 1008) was greater than 12.5 µg/mL and the melting point was 114 to 115 °C.

With `O=c1n(-c2ccc(N3CCN(c4ccccc4F)CC3)cc2)cnn1CC(O)(Cn1cncn1)c1ccc(F)cc1F` (stereo not drawn) [Compound 62, 2-[2-(2,4-Difluorophenyl)-2-hydroxy-3-(1H-1,2,4-triazol-1-yl)propyl]-4-{4-[4-(2-fluorophenyl)-1-piperazinyl]phenyl}-3-(2H,4H)-1,2,4-triazolone] the “MIC, C. neoformans I” value (Cryptococcus neoformans) was less than 0.03, the “MIC, C. neoformans M 106” value (Cryptococcus neoformans) was 0.12 and the MIC, H. capsulatum (Histoplasma capsulatum) was less than 0.03 µg/mL. The “MIC, A. fumigatus 1008” value (A. fumigatus s 1008) was 16.00, the melting point was 74 to 76 °C and the “MIC, C. glabrata 90030” value (Candida) was 1.00. For the same compound, the “MIC, C. krusei 766-1” value (Candida) was 2.00, the “MIC, C. krusei Q. C” value (Candida) was 0.50 and the “MIC, C. parapsilosis Q. C.” value (Candida) was less than 0.03. The “MIC, Candida albicans 1.549” value (Candida) was 4.00, the “MIC, Candida albicans A 26” value (Candida) was less than 0.03 and the “MIC, Candida albicans Y-01-19” value (Candida) was 0.50. For the same compound, the “MIC, Candida tropicalis ATCC” value (Candida) was less than 0.03.

In the case of `COC(=O)Cc1ccc(N2CCN(c3ccc(-n4cnn(CC(O)(Cn5cncn5)c5ccc(F)cc5F)c4=O)cc3)CC2)cc1` (stereo not drawn) [Compound 93, 2-[2-(2,4-Difluorophenyl)-2-hydroxy-3-(1H-1,2,4-triazol-1-yl)propyl]-4-{4-[4-(4-(2-methoxy-2-oxoethyl)phenyl)-1-piperazinyl]phenyl}-3-(2H,4H)-1,2,4-triazolone], the “MIC (υg/ml) (A. fumigatus s 1008)” value (A. fumigatus s 1008) is reported as greater than 12.5 µg/mL and the melting point is reported as 66 to 69 °C.

For `Cc1nn([C@H](C)[C@](O)(Cn2cncn2)c2ccc(F)cc2F)c(=O)n1-c1ccc(N2CCN(c3ccc(Cl)cc3Cl)CC2)cc1` [Compound 33, 2-{[1R2R/1S2S]-2-(2,4-Difluorophenyl)-2-hydroxy-1-methyl-3-(1H-1,2,4-triazol-1-yl)propyl}-4-{4-[4-(2,4-dichlorophenyl)-1-piperazinyl]phenyl}-3-(2H,4H)-5-methyl-1,2,4-triazolone], the “MIC, C. neoformans I” value (Cryptococcus neoformans) was less than 0.03, the “MIC, C. neoformans M 106” value (Cryptococcus neoformans) was less than 0.03 and the MIC, H. capsulatum (Histoplasma capsulatum) was 0.12 µg/mL (≈ 0.183 µM). The “MIC, A. fumigatus 1008” value (A. fumigatus s 1008) was 0.50, the “MIC, C. glabrata 90030” value (Candida) was 0.25 and the “MIC, C. krusei 766-1” value (Candida) was 0.25. For the same compound, the “MIC, C. krusei Q. C” value (Candida) was 0.06, the “MIC, C. parapsilosis Q. C.” value (Candida) was less than 0.03 and the “MIC, Candida albicans 1.549” value (Candida) was 0.13. For the same compound, the “MIC, Candida albicans A 26” value (Candida) was less than 0.03, the “MIC, Candida albicans Y-01-19” value (Candida) was 0.13 and the “MIC, Candida tropicalis ATCC” value (Candida) was less than 0.03.

With `COc1ccc(F)cc1N1CCN(c2ccc(-n3c(C)nn([C@H](C)[C@@](O)(Cn4cncn4)c4ccc(F)cc4F)c3=O)cc2)CC1` [Compound 28, 2-{[1R2S/1S2R]-2-(2,4-Difluorophenyl)-2-hydroxy-1-methyl-3-(1H-1,2,4-triazol-1-yl)propyl}-4-{4-[4-(2-methoxy-5-fluorophenyl)-1-piperazinyl]phenyl}-3-(2H,4H)-5-methyl-1,2,4-triazolone] the “MIC, C. neoformans I” value (Cryptococcus neoformans) was 0.25, the “MIC, C. neoformans M 106” value (Cryptococcus neoformans) was 1.00 and the MIC, H. capsulatum (Histoplasma capsulatum) was 2 µg/mL (≈ 3.15 µM). The “MIC, A. fumigatus 1008” value (A. fumigatus s 1008) was greater than 16, the “MIC, C. glabrata 90030” value (Candida) was 4.00 and the “MIC, C. krusei 766-1” value (Candida) was greater than 16. The “MIC, C. krusei Q. C” value (Candida) was 16.0, the “MIC, C. parapsilosis Q. C.” value (Candida) was 0.25 and the “MIC, Candida albicans 1.549” value (Candida) was 8.00. For the same compound, the “MIC, Candida albicans A 26” value (Candida) was less than 0.03, the “MIC, Candida albicans Y-01-19” value (Candida) was 4.00 and the “MIC, Candida tropicalis ATCC” value (Candida) was less than 0.03.

With `O=C(O)CCc1ccc(N2CCN(c3ccc(-n4cnn(CC(O)(Cn5cncn5)c5ccc(F)cc5F)c4=O)cc3)CC2)cc1` (stereo not drawn) [Compound 94, 2-[2-(2,4-Difluorophenyl)-2-hydroxy-3-(1H-1,2,4-triazol-1-yl)propyl]-4-{4-[4-(4-(carboxyethyl)-phenyl)-1-piperazinyl]phenyl}-3-(2H,4H)-1,2,4-triazolone] the “MIC (υg/ml) (A. fumigatus s 1008)” value (A. fumigatus s 1008) was greater than 12.5 µg/mL and the melting point was 235 to 239 °C.

For `Cc1ccc(N2CCN(c3ccc(-n4cnn([C@H](C)[C@](O)(Cn5cncn5)c5ccc(F)cc5F)c4=O)cc3)CC2)cc1C` [Compound 23, 2-{[1R2R/1S2S]-2-(2,4-Difluorophenyl)-2-hydroxy-1-methyl-3-(1H-1,2,4-triazol-1-yl)propyl}-4-{4-[4-(3,4-dimethylphenyl)-1-piperazinyl]phenyl}-3-(2H,4H)-1,2,4-triazolone], the “MIC, C. neoformans I” value (Cryptococcus neoformans) was less than 0.03, the “MIC, C. neoformans M 106” value (Cryptococcus neoformans) was less than 0.03 and the MIC, H. capsulatum (Histoplasma capsulatum) was 0.06 µg/mL (≈ 0.0999 µM). For the same compound, the “MIC, A. fumigatus 1008” value (A. fumigatus s 1008) was 1.00, the “MIC, C. glabrata 90030” value (Candida) was 0.50 and the “MIC, C. krusei 766-1” value (Candida) was 0.50. The “MIC, C. krusei Q. C” value (Candida) was 0.25, the “MIC, C. parapsilosis Q. C.” value (Candida) was less than 0.03 and the “MIC, Candida albicans 1.549” value (Candida) was 0.25. The “MIC, Candida albicans A 26” value (Candida) was less than 0.03, the “MIC, Candida albicans Y-01-19” value (Candida) was 0.50 and the “MIC, Candida tropicalis ATCC” value (Candida) was less than 0.03.

In the case of `O=c1n(-c2ccc(N3CCN(c4ccccc4)CC3)cc2)cnn1CC(O)(Cn1cncn1)c1ccc(F)cc1F` (stereo not drawn) [Compound 45, 2-[2-(2,4-Difluorophenyl)-2-hydroxy-3-(1H-1,2,4-triazol-1-yl)propyl]-4-{4-[1-phenyl-1-piperazinyl]phenyl}-3-(2H,4H)-1,2,4-triazolone], the “MIC, C. neoformans I” value (Cryptococcus neoformans) is reported as less than 0.02, the “MIC, C. neoformans M 106” value (Cryptococcus neoformans) is reported as 0.10 and the MIC, H. capsulatum (Histoplasma capsulatum) is reported as 3.12 µg/mL (≈ 5.59 µM). The “MIC, A. fumigatus 1008” value (A. fumigatus s 1008) was greater than 12.5, the “MIC, C. glabrata 90030” value (Candida) was 0.10 and the “MIC, C. krusei 766-1” value (Candida) was 0.80. For the same compound, the “MIC, C. krusei Q. C” value (Candida) was 0.10, the “MIC, C. parapsilosis Q. C.” value (Candida) was less than 0.02 and the “MIC, Candida albicans 1.549” value (Candida) was 0.05. The “MIC, Candida albicans A 26” value (Candida) was less than 0.02, the “MIC, Candida albicans Y-01-19” value (Candida) was 0.05 and the “MIC, Candida tropicalis ATCC” value (Candida) was 3.12.

With `Cc1nn([C@H](C)[C@@](O)(Cn2cncn2)c2ccc(F)cc2F)c(=O)n1-c1ccc(N2CCN(c3ccccc3F)CC2)cc1` [Compound 26, 2-{[1R2S/1S2R]-2-(2,4-Difluorophenyl)-2-hydroxy-1-methyl-3-(1H-1,2,4-triazol-1-yl)propyl}-4-{4-[4-(2-fluorophenyl)-1-piperazinyl]phenyl}-3-(2H,4H)-5-methyl-1,2,4-triazolone] the “MIC, C. neoformans I” value (Cryptococcus neoformans) was less than 0.03, the “MIC, C. neoformans M 106” value (Cryptococcus neoformans) was less than 0.03 and the MIC, H. capsulatum (Histoplasma capsulatum) was 0.12 µg/mL (≈ 0.198 µM). For the same compound, the “MIC, A. fumigatus 1008” value (A. fumigatus s 1008) was 8.00, the “MIC, C. glabrata 90030” value (Candida) was 1.00 and the “MIC, C. krusei 766-1” value (Candida) was 2.00. The “MIC, C. krusei Q. C” value (Candida) was 0.50, the “MIC, C. parapsilosis Q. C.” value (Candida) was less than 0.03 and the “MIC, Candida albicans 1.549” value (Candida) was 0.25. The “MIC, Candida albicans A 26” value (Candida) was less than 0.03, the “MIC, Candida albicans Y-01-19” value (Candida) was 1.00 and the “MIC, Candida tropicalis ATCC” value (Candida) was less than 0.03.

For `Cc1nn([C@H](C)[C@@](O)(Cn2cncn2)c2ccc(F)cc2F)c(=O)n1-c1ccc(N2CCN(c3cc(Cl)cc(Cl)c3)CC2)cc1` [Compound 30, 2-{[1R2S/1S2R]-2-(2,4-Difluorophenyl)-2-hydroxy-1-methyl-3-(1H-1,2,4-triazol-1-yl)propyl}-4-{4-[4-(3,5-dichlorophenyl)-1-piperazinyl]phenyl}-3-(2H,4H)-5-methyl-1,2,4-triazolone], the “MIC, C. neoformans I” value (Cryptococcus neoformans) was 0.12, the “MIC, C. neoformans M 106” value (Cryptococcus neoformans) was 0.25 and the MIC, H. capsulatum (Histoplasma capsulatum) was 0.5 µg/mL (≈ 0.763 µM). For the same compound, the “MIC, A. fumigatus 1008” value (A. fumigatus s 1008) was greater than 16, the “MIC, C. glabrata 90030” value (Candida) was 1.00 and the “MIC, C. krusei 766-1” value (Candida) was 8.00. For the same compound, the “MIC, C. krusei Q. C” value (Candida) was 1.00, the “MIC, C. parapsilosis Q. C.” value (Candida) was 0.12 and the “MIC, Candida albicans 1.549” value (Candida) was 0.50. For the same compound, the “MIC, Candida albicans A 26” value (Candida) was less than 0.03, the “MIC, Candida albicans Y-01-19” value (Candida) was 1.00 and the “MIC, Candida tropicalis ATCC” value (Candida) was less than 0.03.
